Test [1] deals with T1, Estrogen receptor (Homo sapiens) (UniProt P03372).
T1 sequence (whole entry): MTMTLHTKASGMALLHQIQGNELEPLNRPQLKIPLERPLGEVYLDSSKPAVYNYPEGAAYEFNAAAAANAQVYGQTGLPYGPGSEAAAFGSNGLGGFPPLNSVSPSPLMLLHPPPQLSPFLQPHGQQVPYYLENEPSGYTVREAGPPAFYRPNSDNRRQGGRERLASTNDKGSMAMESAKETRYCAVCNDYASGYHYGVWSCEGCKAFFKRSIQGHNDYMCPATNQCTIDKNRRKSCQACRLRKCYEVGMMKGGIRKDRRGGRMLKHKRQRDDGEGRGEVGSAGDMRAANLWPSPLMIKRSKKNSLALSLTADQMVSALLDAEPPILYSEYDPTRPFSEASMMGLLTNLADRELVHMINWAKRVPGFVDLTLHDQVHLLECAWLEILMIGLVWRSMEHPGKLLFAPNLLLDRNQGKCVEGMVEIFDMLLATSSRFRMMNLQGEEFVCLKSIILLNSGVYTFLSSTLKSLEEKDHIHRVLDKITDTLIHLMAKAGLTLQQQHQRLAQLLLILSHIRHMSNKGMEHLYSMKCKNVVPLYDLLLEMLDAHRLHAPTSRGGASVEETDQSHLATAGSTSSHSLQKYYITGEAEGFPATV
In words: Displacement of [3H]estradiol form ERalpha assessed as relative binding affinity relative to estradiol. For orientation: Displacement assays read how much labelled ligand stays bound in the presence of the test substance.

The target in test [2] is Estrogen receptor beta (Homo sapiens) (UniProt Q92731). In words: Displacement of [3H]estradiol form ERbeta assessed as relative binding affinity relative to estradiol.
Sequence of Estrogen receptor beta (Homo sapiens) (Q92731 whole entry): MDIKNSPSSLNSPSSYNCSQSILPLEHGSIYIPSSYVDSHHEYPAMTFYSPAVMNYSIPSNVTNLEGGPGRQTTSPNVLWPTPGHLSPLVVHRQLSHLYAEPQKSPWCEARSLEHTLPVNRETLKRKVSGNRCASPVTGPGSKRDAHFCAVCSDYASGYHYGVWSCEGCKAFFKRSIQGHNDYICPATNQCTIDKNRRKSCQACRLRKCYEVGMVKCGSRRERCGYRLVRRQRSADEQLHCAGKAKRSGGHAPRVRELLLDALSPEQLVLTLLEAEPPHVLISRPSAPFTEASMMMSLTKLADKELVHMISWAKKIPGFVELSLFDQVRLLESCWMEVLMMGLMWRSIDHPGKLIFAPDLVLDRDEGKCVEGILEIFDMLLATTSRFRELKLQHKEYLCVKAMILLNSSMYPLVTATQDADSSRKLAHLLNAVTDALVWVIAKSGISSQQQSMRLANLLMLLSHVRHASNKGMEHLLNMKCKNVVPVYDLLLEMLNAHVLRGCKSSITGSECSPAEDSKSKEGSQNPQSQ
The nature of test [3]: Selectivity ratio of RBA for ERbeta to RBA for ERalpha.
For test [4], the target named is T1, Estrogen receptor (Homo sapiens). Kind of test: Activity at ERalpha expressed in CHO cells co-transfected with ERE plasmid assessed as relative transcriptional activation at 10 nM by luciferase reporter assay relative to estradiol. The class given is cell-based. In general terms: A reporter such as luciferase makes a cellular process visible.
In test [5] the target is Estrogen receptor beta (Homo sapiens) (UniProt Q92731). In words: Activity at ERbeta expressed in CHO cells co-transfected with ERE plasmid assessed as relative transcriptional activation at 10 nM by luciferase reporter assay relative to estradiol. It counts as cell-based.

On to `C[C@]12CC[C@H](c3cc(F)c(O)cc3F)C[C@@H]1CC[C@@H]2O`, for which the RBA in test [1] came to 0.38%; in test [2] it was 3.3%. Further, in test [3], the Selectivity ratio worked out at 8.7.

Take `C[C@]12CC[C@H](c3ccc(O)c(F)c3)C[C@@H]1CC[C@@H]2O`: the RBA in test [1] worked out at 1%; in test [2], 8.7%. For the same compound, the Selectivity ratio in test [3] came out at 8.7. Moreover, the Activity in test [4] turned out to be 8.3%; in test [5], 14%.

With `Cc1cc(O)ccc1[C@H]1CC[C@@]2(C)[C@@H](CC[C@@H]2O)C1`, the figures for the RBA in test [1] and in test [2] were 2.8% and 33.6%, respectively. For the same compound, the Selectivity ratio in test [3] was determined as 12. Besides, the Activity in test [4] was 9.7%; in test [5], 149%.

As for `C[C@]12CC[C@H](c3ccc(O)cc3Cl)C[C@@H]1CC[C@@H]2O`, the RBA in test [1] was 49%. Also, the Selectivity ratio in test [3] stood at 3.4.

For `C=Cc1cc(O)cc2nc(-c3ccc(O)c(F)c3)oc12`, the Selectivity ratio in test [3] is 226.

`C[C@]12CC[C@H](c3cc(F)c(O)c(F)c3F)C[C@@H]1CC[C@@H]2O`: the RBA in test [1] is 0.19%; in test [2] it was 1.73%. The Selectivity ratio in test [3] was found to be 9.1.

Take `C[C@]12CC[C@@H](c3ccc(O)cc3)C[C@@H]1CC[C@@H]2O`: the RBA is 0.06% in test [1] and 0.59% in test [2]. The Selectivity ratio in test [3] is 9.8.

Consider `O=c1c(-c2ccc(O)cc2)coc2cc(O)cc(O)c12`, for which, in test [3], the Selectivity ratio is 41.

Turning to `C[C@]12CC[C@H](c3ccc(O)cc3F)C[C@@H]1CC[C@@H]2O`, the RBA amounted to 27% in test [1] and 135% in test [2]. The Selectivity ratio in test [3] stood at 5. In addition, the figures for the Activity in test [4] and in test [5] were 44% and 146%, respectively.

On to `C[C@]12CC[C@H](c3cc(F)c(O)c(F)c3)C[C@@H]1CC[C@@H]2O`, for which the RBA in test [1] turned out to be 0.04%; in test [2], 0.28%. In addition, the Selectivity ratio in test [3] came out at 7.

Take `C[C@]12CC[C@H](c3ccc(O)c(F)c3F)C[C@@H]1CC[C@@H]2O`: the RBA was found to be 4.6% in test [1] and 43% in test [2]. Besides, the Selectivity ratio in test [3] amounted to 9.3.

Take `C[C@]12CC[C@H](c3ccc(O)cc3)C[C@@H]1CC[C@@H]2O`: the results for the RBA in test [1] and in test [2] were 1.5% and 21.5%, respectively. The Selectivity ratio in test [3] was determined as 14. Further, the results for the Activity in test [4] and in test [5] were 4.3% and 164%, respectively.

Source of the values: ChEMBL document CHEMBL1152708, “Deconstructing estradiol: removal of B-ring generates compounds which are potent and subtype-selective estrogen receptor agonists” (Bioorg Med Chem Lett, 2009).
